Results reported in US20190364899A1, “MICROBIOCIDAL OXADIAZOLE DERIVATIVES” (SYNGENTA PARTICIPATIONS AG, priority 2015, published 2019).

Tests used:
Phakopsora pachyrhizi = assay: Fungicidal activity against Phakopsora pachyrhizi / soybean / leaf disc preventative (Asian soybean rust); type: in vivo; details: foliar, 200 ppm in the applied formulation, soybean leaf disks, inoculated one day after application, compared to untreated, read-out: disease control
Method: (§1) General examples of leaf disk tests in well plates: Leaf disks or leaf segments of various plant species are cut from plants grown in a greenhouse. The cut leaf disks or segments are placed in multiwell plates (24-well format) onto water agar. The leaf disks are sprayed with a test solution before (preventative) or after (curative) inoculation. Compounds to be tested are prepared as DMSO solutions (max. 10 mg/ml) which are diluted to the appropriate concentration with 0.025% Tween20 just before spraying. The inoculated leaf disks or segments are incubated under defined conditions (temperature, relative humidity, light, etc.) according to the respective test system. A single evaluation of disease level is carried out 3 to 14 days after inoculation, depending on the pathosystem. Percent disease control relative to the untreated check leaf disks or segments is then calculated. General examples of liquid culture tests in well plates: Mycelia fragments or conidia suspensions of a fungus prepared either freshly from liquid cultures of the fungus or from cryogenic storage, are directly mixed into nutrient broth. DMSO solutions of the test compound (max. 10 mg/ml) are diluted with 0.025% Tween20 by a factor of 50 and 10 μl of this solution is pipetted into a microtiter plate (96-well format). The nutrient broth containing the fungal spores/mycelia fragments is then added to give an end concentration of the tested compound. The test plates are incubated in the dark at 24° C. and 96% relative humidity. The inhibition of fungal growth is determined photometrically after 2 to 7 days, depending on the pathosystem, and percent antifungal activity relative to the untreated check is calculated.
Example 3: Fungicidal Activity Against Phakopsora pachyrhizi/Soybean/Leaf Disc Preventative (Asian Soybean Rust)
Soybean leaf disks are placed on water agar in multiwell plates (24-well format) and sprayed with the formulated test compound diluted in water. One day after application leaf discs are inoculated by spraying a spore suspension on the lower leaf surface. After an incubation period in a climate cabinet of 24-36 hours in darkness at 20° C. and 75% rh leaf disc are kept at 20° C. with 12 h light/day and 75% rh. The activity of a compound is assessed as percent disease control compared to untreated when an appropriate level of disease damage appears in untreated check leaf disks (12 to 14 days after application).
(§2) The following compounds at 200 ppm in the applied formulation give at least 80% disease control in this test when compared to untreated control leaf disks under the same conditions, which show extensive disease development.

[1] = tested on: Glomerella Lagenarium (Colletotrichum Lagenarium); assay: Fungicidal activity against Glomerella lagenarium (Colletotrichum lagenarium) liquid culture / cucumber / preventative (anthracnose); type: cell-based; details: Colletotrichum orbiculare; 20 ppm in the applied formulation; liquid culture in PDB, growth inhibition measured photometrically 3 to 4 days after application; compared to untreated; read-out: disease control
Method: as §1
Example 4: Fungicidal Activity Against Glomerella Lagenarium (Colletotrichum Lagenarium) Liquid Culture/Cucumber/Preventative (Anthracnose)
Conidia of the fungus from cryogenic storage are directly mixed into nutrient broth (PDB—potato dextrose broth). After placing a (DMSO) solution of test compound into a microtiter plate (96-well format), the nutrient broth containing the fungal spores is added. The test plates are incubated at 24° C. and the inhibition of growth is measured photometrically 3 to 4 days after application.
The following compounds at 20 ppm in the applied formulation give at least 80% disease control in this test when compared to untreated control under the same conditions, which show extensive disease development.

[2] = tested on: Puccinia Recondite f. Sp. Tritici; assay: Fungicidal activity against Puccinia recondita f. sp. tritici / wheat / leaf disc curative (brown rust); type: in vivo; details: foliar, 24 h, 200 ppm in the applied formulation, wheat leaf segments cv. Kanzler, applied 1 day after inoculation, compared to untreated, read-out: disease control
Method: as §1
Example 2: Fungicidal Activity Against Puccinia Recondite f. Sp. Tritici Wheat/Leaf Disc Curative (Brown Rust)
Wheat leaf segments cv. Kanzler are placed on agar in multiwell plates (24-well format). The leaf segments are then inoculated with a spore suspension of the fungus. Plates were stored in darkness at 19° C. and 75% relative humidity. The formulated test compound diluted in water was applied 1 day after inoculation. The leaf segments were incubated at 19° C. and 75% relative humidity under a light regime of 12 hours light/12 hours darkness in a climate cabinet and the activity of a compound was assessed as percent disease control compared to untreated when an appropriate level of disease damage appears in untreated check leaf segments (6 to 8 days after application).
as §2

[3] = tested on: Puccinia recondita f, Sp. Tritici; assay: Fungicidal activity against Puccinia recondita f. sp. tritici / wheat / leaf disc preventative (brown rust); type: in vivo; details: foliar, 200 ppm in the applied formulation, wheat leaf segments cv. Kanzler, inoculated 1 day after application, compared to untreated, read-out: disease control
Method: as §1
Example 1: Fungicidal Activity Against Puccinia recondita f, Sp. Tritici/Wheat/Leaf Disc Preventative (Brown Rust)
Wheat leaf segments cv. Kanzler were placed on agar in multiwell plates (24-well format) and sprayed with the formulated test compound diluted in water. The leaf disks were inoculated with a spore suspension of the fungus 1 day after application. The inoculated leaf segments were incubated at 19° C. and 75% relative humidity (rh) under a light regime of 12 hours light/12 hours darkness in a climate cabinet and the activity of a compound was assessed as percent disease control compared to untreated when an appropriate level of disease damage appears in untreated check leaf segments (7 to 9 days after application).
as §2

Q: Which pest or weed control at 200 ppm (Phakopsora pachyrhizi) does the source give for `O=C(NCc1ccc(-c2noc(C(F)(F)F)n2)cc1)N1CCOCC1` [Compound 3.2, N-[[4-[5-(trifluoromethyl)-1,2,4-oxadiazol-3-yl]phenyl]methyl] morpholine-4-carboxamide] here?
A: The pest or weed control at 200 ppm was ≥ 80%.

Q: And the melting point?
A: Its melting point is 112 to 115 °C.

Q: What about the inhibition of growth at 20 ppm [1] of the same compound?
A: Its inhibition of growth at 20 ppm is ≥ 80%.

Q: What about the pest or weed control at 200 ppm [2] of the same compound?
A: The pest or weed control at 200 ppm was ≥ 80%.

Q: And the pest or weed control at 200 ppm [3]?
A: Its pest or weed control at 200 ppm is ≥ 80%.
